Organism: Rattus norvegicus
Assay: DrugMatrix - Regimen: Daily Repeat
Assay type: toxicity, organism-based, Sprague-Dawley
Design: regimen Daily Repeat, gender Male, age 6-8 weeks
Settings: in vivo, po, route oral GAVAGE, vehicle .5 % CMC; for ABSOLUTE BASOPHIL / ABSOLUTE EOSINOPHIL / ABSOLUTE LYMPHOCYTE / ABSOLUTE MONOCYTE / ABSOLUTE SEGMENTED NEUTROPHIL / BASOPHIL / EOSINOPHIL / ERYTHROCYTE COUNT / HEMATOCRIT / HEMOGLOBIN / LEUKOCYTE COUNT / LYMPHOCYTE / MEAN CORPUSCULAR HEMOGLOBIN / MEAN CORPUSCULAR HEMOGLOBIN CONCENTRATION / MEAN CORPUSCULAR VOLUME / MONOCYTE / NEUTROPHIL / NUCLEATED RED BLOOD CELLS / PLATELET COUNT: tissue Blood; for ALANINE AMINOTRANSFERASE / ALBUMIN / ALKALINE PHOSPHATASE / ASPARTATE AMINOTRANSFERASE / BLOOD UREA NITROGEN / CARBON DIOXIDE / CHLORIDE / CHOLESTEROL / CREATINE PHOSPHOKINASE / CREATININE / GLUCOSE / LACTATE DEHYDROGENASE / LIPASE / PHOSPHORUS / POTASSIUM / SODIUM / TOTAL BILIRUBIN / TOTAL PROTEIN / URIC ACID: tissue Plasma
[1] = 0 mg/kg, 72 h, dose level Control, time 3 day
[2] = 0 mg/kg, 120 h, dose level Control, time 5 day
[3] = 15 mg/kg, 72 h, dose level Low, time 3 day

Compound: COC(=O)c1ccc(O)cc1 [METHYLPARABEN]
- ABSOLUTE BASOPHIL [1]: 0 CELLS/uL
- ABSOLUTE EOSINOPHIL [1]: 0 CELLS/uL
- ABSOLUTE LYMPHOCYTE [1]: 10913.67 CELLS/uL
- ABSOLUTE MONOCYTE [1]: 85.33 CELLS/uL
- ABSOLUTE SEGMENTED NEUTROPHIL [1]: 1401 CELLS/uL
- BASOPHIL [1]: 0%
- EOSINOPHIL [1]: 0%
- ERYTHROCYTE COUNT [1]: 5.57 x10E6/uL
- HEMATOCRIT [1]: 35.58%
- HEMOGLOBIN [1]: 13.8 G/DL
- LEUKOCYTE COUNT [1]: 12.4 x10E3/uL
- LYMPHOCYTE [1]: 88%
- MEAN CORPUSCULAR HEMOGLOBIN [1]: 24.78 pg
- MEAN CORPUSCULAR HEMOGLOBIN CONCENTRATION [1]: 38.82 G/DL
- MEAN CORPUSCULAR VOLUME [1]: 63.88 fL
- MONOCYTE [1]: 0.67%
- NEUTROPHIL [1]: 11.33%
- NUCLEATED RED BLOOD CELLS [1]: 0 /100WBC
- PLATELET COUNT [1]: 1162.33 x10E3/uL
- ALANINE AMINOTRANSFERASE [1]: 53 u/L
- ALBUMIN [1]: 4.17 G/DL
- ALKALINE PHOSPHATASE [1]: 374.5 u/L
- ASPARTATE AMINOTRANSFERASE [1]: 89.5 u/L
- BLOOD UREA NITROGEN [1]: 16.33 mg/dL
- CARBON DIOXIDE [1]: 29.17 mmol/L
- CHLORIDE [1]: 97.67 MEQ/L
- CHOLESTEROL [1]: 77 mg/dL
- CREATINE PHOSPHOKINASE [1]: 464.83 u/L
- CREATININE [1]: 0.14 mg/dL
- GLUCOSE [1]: 164 mg/dL
- LACTATE DEHYDROGENASE [1]: 155.5 u/L
- LIPASE [1]: 9.17 u/L
- PHOSPHORUS [1]: 12.4 mg/dL
- POTASSIUM [1]: 6.91 MEQ/L
- SODIUM [1]: 141.47 MEQ/L
- TOTAL BILIRUBIN [1]: 0.2 mg/dL
- TOTAL PROTEIN [1]: 5.95 G/DL
- URIC ACID [1]: 1.72 mg/dL
- ABSOLUTE BASOPHIL [2]: 0 CELLS/uL
- ABSOLUTE EOSINOPHIL [2]: 20.5 CELLS/uL
- ABSOLUTE LYMPHOCYTE [2]: 13871.67 CELLS/uL
- ABSOLUTE MONOCYTE [2]: 60.5 CELLS/uL
- ABSOLUTE SEGMENTED NEUTROPHIL [2]: 980.67 CELLS/uL
- BASOPHIL [2]: 0%
- EOSINOPHIL [2]: 0.17%
- ERYTHROCYTE COUNT [2]: 5.65 x10E6/uL
- HEMATOCRIT [2]: 35.63%
- HEMOGLOBIN [2]: 14.08 G/DL
- LEUKOCYTE COUNT [2]: 14.93 x10E3/uL
- LYMPHOCYTE [2]: 92.83%
- MEAN CORPUSCULAR HEMOGLOBIN [2]: 24.97 pg
- MEAN CORPUSCULAR HEMOGLOBIN CONCENTRATION [2]: 39.55 G/DL
- MEAN CORPUSCULAR VOLUME [2]: 63.13 fL
- MONOCYTE [2]: 0.33%
- NEUTROPHIL [2]: 6.67%
- NUCLEATED RED BLOOD CELLS [2]: 0 /100WBC
- PLATELET COUNT [2]: 1248.17 x10E3/uL
- ALANINE AMINOTRANSFERASE [2]: 45.17 u/L
- ALBUMIN [2]: 4.27 G/DL
- ALKALINE PHOSPHATASE [2]: 405.67 u/L
- ASPARTATE AMINOTRANSFERASE [2]: 74.17 u/L
- BLOOD UREA NITROGEN [2]: 15.5 mg/dL
- CARBON DIOXIDE [2]: 30.17 mmol/L
- CHLORIDE [2]: 100.67 MEQ/L
- CHOLESTEROL [2]: 57 mg/dL
- CREATINE PHOSPHOKINASE [2]: 239.5 u/L
- CREATININE [2]: 0.17 mg/dL
- GLUCOSE [2]: 165.67 mg/dL
- LACTATE DEHYDROGENASE [2]: 90.5 u/L
- LIPASE [2]: 8.83 u/L
- PHOSPHORUS [2]: 12.32 mg/dL
- POTASSIUM [2]: 7.03 MEQ/L
- SODIUM [2]: 142.65 MEQ/L
- TOTAL BILIRUBIN [2]: 0.18 mg/dL
- TOTAL PROTEIN [2]: 6.03 G/DL
- URIC ACID [2]: 1.98 mg/dL
- ABSOLUTE BASOPHIL [3]: 0 CELLS/uL
- ABSOLUTE EOSINOPHIL [3]: 0 CELLS/uL
- ABSOLUTE LYMPHOCYTE [3]: 13173.33 CELLS/uL
- ABSOLUTE MONOCYTE [3]: 95.67 CELLS/uL
- ABSOLUTE SEGMENTED NEUTROPHIL [3]: 1364.33 CELLS/uL
- BASOPHIL [3]: 0%
- EOSINOPHIL [3]: 0%
- ERYTHROCYTE COUNT [3]: 5.6 x10E6/uL
- HEMATOCRIT [3]: 37.1%
- HEMOGLOBIN [3]: 14.57 G/DL
- LEUKOCYTE COUNT [3]: 14.63 x10E3/uL
- LYMPHOCYTE [3]: 90%
- MEAN CORPUSCULAR HEMOGLOBIN [3]: 26.03 pg
- MEAN CORPUSCULAR HEMOGLOBIN CONCENTRATION [3]: 39.27 G/DL
- MEAN CORPUSCULAR VOLUME [3]: 66.23 fL
- MONOCYTE [3]: 0.67%
- NEUTROPHIL [3]: 9.33%
- NUCLEATED RED BLOOD CELLS [3]: 0.67 /100WBC
- PLATELET COUNT [3]: 1171 x10E3/uL
- ALANINE AMINOTRANSFERASE [3]: 56.67 u/L
- ALBUMIN [3]: 4.2 G/DL
- ALKALINE PHOSPHATASE [3]: 324 u/L
- ASPARTATE AMINOTRANSFERASE [3]: 86 u/L
- BLOOD UREA NITROGEN [3]: 16.33 mg/dL
- CARBON DIOXIDE [3]: 26.67 mmol/L
- CHLORIDE [3]: 98.67 MEQ/L
- CHOLESTEROL [3]: 78 mg/dL
- CREATINE PHOSPHOKINASE [3]: 194 u/L
- CREATININE [3]: 0.14 mg/dL
- GLUCOSE [3]: 149.67 mg/dL
- LACTATE DEHYDROGENASE [3]: 120 u/L
- LIPASE [3]: 9.33 u/L
- PHOSPHORUS [3]: 14.03 mg/dL
- POTASSIUM [3]: 6.83 MEQ/L
- SODIUM [3]: 143.63 MEQ/L
- TOTAL BILIRUBIN [3]: 0.23 mg/dL
- TOTAL PROTEIN [3]: 5.9 G/DL
- URIC ACID [3]: 1.83 mg/dL

Source: ChEMBL document CHEMBL3885881, “DrugMatrix”
